“And” between values parts separate entries of the source, which are not always exact repeats. Identical values can stand only once. Inconclusive results and toxic doses are left out.
System: P388 leukemia ip, CD2F1 mice, survival T/C
Assay: NCI In Vivo Anticancer Drug Screen. Data for tumor model P388 Leukemia (intraperitoneal) in CD2F1 (CDF1) mice
Conditions: endpoint: median survival time, higher = longer survival
Summary of the method: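 Mice carrying the transplanted tumor received test compound or vehicle. Survival was recorded in each group, and the value is the treated-group measurement divided by that of the vehicle-treated control group.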

[1] = dose: 100.0 mg/kg/injection, schedule: Q01DX001 (ip), vehicle: saline with Tween-80
[2] = dose: 200.0 mg/kg/injection, schedule: Q01DX001 (ip), vehicle: saline with Tween-80
[3] = dose: 400.0 mg/kg/injection, schedule: Q01DX001 (ip), vehicle: saline with Tween-80
[4] = dose: 25.0 mg/kg/injection, schedule: Q01DX009 (ip), vehicle: saline
[5] = dose: 50.0 mg/kg/injection, schedule: Q01DX009 (ip), vehicle: saline
[6] = dose: 100.0 mg/kg/injection, schedule: Q01DX009 (ip), vehicle: saline
[7] = dose: 50.0 mg/kg/injection, schedule: Q01DX005 (ip), vehicle: saline with Tween-80
[8] = dose: 100.0 mg/kg/injection, schedule: Q01DX005 (ip), vehicle: saline with Tween-80
[9] = dose: 200.0 mg/kg/injection, schedule: Q01DX005 (ip), vehicle: saline with Tween-80

CC[C@](O)(C(=O)O)c1cc2n(c(=O)c1CO)Cc1cc3ccccc3nc1-2
T/C (dose: 0.5 mg/kg/injection, schedule: Q01DX009 (ip), vehicle: saline with Tween-80): 118 % of control
T/C (dose: 0.5 mg/kg/injection, schedule: Q01DX009 (ip), vehicle: water): 120 % of control
T/C (dose: 1.57 mg/kg/injection, schedule: Q04DX003 (ip), vehicle: other): 116 % of control and 119 % of control
T/C (dose: 2.0 mg/kg/injection, schedule: Q01DX009 (ip), vehicle: saline sonified): 163 % of control
T/C (dose: 2.0 mg/kg/injection, schedule: Q01DX009 (ip), vehicle: saline with Tween-80): 159 % of control
T/C (dose: 2.0 mg/kg/injection, schedule: Q01DX009 (ip), vehicle: water): 158 % of control
T/C (dose: 2.5 mg/kg/injection, schedule: Q04DX003 (ip), vehicle: water): 120 % of control
T/C (dose: 4.0 mg/kg/injection, schedule: Q01DX009 (ip), vehicle: saline sonified): 100 % of control
T/C (dose: 4.0 mg/kg/injection, schedule: Q01DX009 (ip), vehicle: saline with Tween-80): 195 % of control
T/C (dose: 4.0 mg/kg/injection, schedule: Q01DX009 (ip), vehicle: water): 207 % of control
T/C (dose: 5.0 mg/kg/injection, schedule: Q04DX003 (ip), vehicle: water): 111 % of control
T/C (dose: 6.25 mg/kg/injection, schedule: Q04DX003 (ip), vehicle: other): 156 % of control and 159 % of control
T/C (dose: 6.25 mg/kg/injection, schedule: Q04DX003 (ip), vehicle: water): 154 % of control
T/C (dose: 8.0 mg/kg/injection, schedule: Q01DX009 (ip), vehicle: water): 100 % of control
T/C (dose: 9.72 mg/kg/injection, schedule: Q04DX002 (ip), vehicle: saline): 108 % of control
T/C (dose: 10.0 mg/kg/injection, schedule: Q04DX003 (ip), vehicle: water): 155 % of control
T/C (dose: 10.8 mg/kg/injection, schedule: Q04DX002 (ip), vehicle: saline): 160 % of control
T/C (dose: 12.5 mg/kg/injection, schedule: Q04DX003 (ip), vehicle: other): 106 % of control and 113 % of control
T/C (dose: 13.0 mg/kg/injection, schedule: Q04DX003 (ip), vehicle: saline): 185 % of control
T/C (dose: 18.0 mg/kg/injection, schedule: Q04DX002 (ip), vehicle: saline): 159 % of control
T/C (dose: 20.0 mg/kg/injection, schedule: Q04DX003 (ip), vehicle: water): 178 % of control and 220 % of control
T/C (dose: 21.6 mg/kg/injection, schedule: Q04DX003 (ip), vehicle: saline): 217 % of control
T/C (dose: 25.0 mg/kg/injection, schedule: Q04DX003 (ip), vehicle: other): 98 % of control and 90 % of control
T/C (dose: 25.0 mg/kg/injection, schedule: Q04DX003 (ip), vehicle: water): 154 % of control
T/C (dose: 30.0 mg/kg/injection, schedule: Q04DX002 (ip), vehicle: saline): 177 % of control
T/C (dose: 36.0 mg/kg/injection, schedule: Q04DX003 (ip), vehicle: saline): 233 % of control
T/C (dose: 40.0 mg/kg/injection, schedule: Q04DX003 (ip), vehicle: water): 212 % of control and 94 % of control
T/C (dose: 45.0 mg/kg/injection, schedule: Q04DX002 (ip), vehicle: saline): 157 % of control and 196 % of control
T/C (dose: 50.0 mg/kg/injection, schedule: Q04DX002 (ip), vehicle: saline): 183 % of control
T/C (dose: 60.0 mg/kg/injection, schedule: Q04DX003 (ip), vehicle: saline): 93 % of control
T/C (dose: 83.3 mg/kg/injection, schedule: Q04DX002 (ip), vehicle: saline): 91 % of control
T/C (dose: 128.0 mg/kg/injection, schedule: Q04DX003 (ip), vehicle: saline): 58 % of control

Cc1ccc(C(=O)NNC(O)C(F)(F)F)cc1 (stereo not given)
T/C (dose: 100.0 mg/kg/injection, schedule: Q04DX003 (ip), vehicle: Klucel (hydroxypropylcellulose) (HPC)): 97 % of control
T/C (dose: 200.0 mg/kg/injection, schedule: Q04DX003 (ip), vehicle: Klucel (hydroxypropylcellulose) (HPC)): 102 % of control

CCN1/C(=C/C=C/C=C\C=C\c2sc3ccc4ccccc4c3[n+]2CC)Sc2ccc3ccccc3c21
T/C (dose: 1.56 mg/kg/injection, schedule: Q04DX002 (ip), vehicle: saline with Tween-80): 153 % of control and 168 % of control
T/C (dose: 3.12 mg/kg/injection, schedule: Q04DX002 (ip), vehicle: saline with Tween-80): 166 % of control
T/C (dose: 6.25 mg/kg/injection, schedule: Q04DX002 (ip), vehicle: saline with Tween-80): 156 % of control and 171 % of control
T/C (dose: 12.5 mg/kg/injection, schedule: Q04DX002 (ip), vehicle: saline with Tween-80): 159 % of control and 171 % of control and 186 % of control

O=[N+]([O-])c1ccc(-c2cnc3nc4[nH]c5ccccc5c4nn23)cc1
T/C [1]: 101 % of control
T/C [2]: 92 % of control
T/C [3]: 87 % of control

CC(=O)NC(/C=C/c1ccc(Cl)c(Cl)c1)c1cccc(O)c(=O)c1 (stereo not given)
T/C (dose: 6.25 mg/kg/injection, schedule: Q01DX009 (ip), vehicle: saline with Tween-80): 100 % of control
T/C (dose: 12.5 mg/kg/injection, schedule: Q01DX009 (ip), vehicle: saline with Tween-80): 99 % of control
T/C (dose: 25.0 mg/kg/injection, schedule: Q01DX009 (ip), vehicle: saline with Tween-80): 113 % of control
T/C [4]: 119 % of control
T/C [5]: 124 % of control
T/C [6]: 98 % of control

Cc1cc(C)nc(NS(=O)(=O)c2ccc(N=c3c4ccccc4n(-c4ccccc4)c4ccccc34)cc2)n1
T/C [7]: 97 % of control
T/C [8]: 109 % of control
T/C [9]: 90 % of control

COc1ccc2c(ccc3oc([N+](=O)[O-])cc32)c1
T/C (dose: 50.0 mg/kg/injection, schedule: Q01DX005 (ip), vehicle: Klucel (hydroxypropylcellulose) (HPC)): 116 % of control

O=C(O)CCCSC1=CC(=O)c2ccccc2C1=O
T/C (dose: 1.56 mg/kg/injection, schedule: Q04DX003 (ip), vehicle: DMSO): 89 % of control
T/C (dose: 3.12 mg/kg/injection, schedule: Q04DX003 (ip), vehicle: DMSO): 96 % of control
T/C (dose: 6.25 mg/kg/injection, schedule: Q04DX003 (ip), vehicle: DMSO): 100 % of control and 93 % of control
T/C (dose: 12.5 mg/kg/injection, schedule: Q04DX003 (ip), vehicle: DMSO): 100 % of control

CCC(=O)[O-].CCC(=O)[O-].CCC(=O)[O-].CCC(=O)[O-].O=S(=O)(O)O.[Re].[Re]
T/C (dose: 72.0 mg/kg/injection, schedule: Q01DX009 (ip), vehicle: saline): 107 % of control
T/C (dose: 103.0 mg/kg/injection, schedule: Q01DX009 (ip), vehicle: saline): 100 % of control
T/C (dose: 147.0 mg/kg/injection, schedule: Q01DX009 (ip), vehicle: saline): 102 % of control
T/C (dose: 171.5 mg/kg/injection, schedule: Q01DX009 (ip), vehicle: suspension in saline): 109 % of control
T/C (dose: 210.0 mg/kg/injection, schedule: Q01DX009 (ip), vehicle: saline): 108 % of control
T/C (dose: 245.0 mg/kg/injection, schedule: Q01DX009 (ip), vehicle: suspension in saline): 120 % of control
T/C (dose: 300.0 mg/kg/injection, schedule: Q01DX009 (ip), vehicle: saline): 91 % of control

CCOC(=O)C(C)c1ccccc1-c1cccc(OC)c1 (stereo not given)
T/C [7]: 94 % of control
T/C [8]: 97 % of control
T/C [9]: 103 % of control

CCCCCCCCCCCC(=O)N(CCO)CCc1ccccc1
T/C [4]: 101 % of control and 91 % of control
T/C [5]: 101 % of control and 109 % of control and 95 % of control
T/C [6]: 100 % of control and 103 % of control
T/C (dose: 200.0 mg/kg/injection, schedule: Q01DX009 (ip), vehicle: saline): 103 % of control and 110 % of control

CCN(CC)CCNc1ccc(COC(=O)NC)c2oc3ccccc3c(=O)c12
T/C (dose: 1.5 mg/kg/injection, schedule: Q01DX005 (ip), vehicle: distilled water + Tween-80): 113 % of control
T/C (dose: 3.0 mg/kg/injection, schedule: Q01DX005 (ip), vehicle: distilled water + Tween-80): 113 % of control
T/C (dose: 6.0 mg/kg/injection, schedule: Q01DX005 (ip), vehicle: distilled water + Tween-80): 113 % of control
T/C (dose: 12.5 mg/kg/injection, schedule: Q01DX005 (ip), vehicle: distilled water + Tween-80): 93 % of control

C=CCC(CCCCCCCCCCCCC)C(=O)O (stereo not given)
T/C [1]: 104 % of control
T/C [2]: 95 % of control
T/C [3]: 91 % of control

COc1ccc2c(NCCCCCCCCNc3c4ccc(OC)cc4nc4c(OC)cccc34)c3cccc(OC)c3nc2c1
T/C (dose: 0.63 mg/kg/injection, schedule: Q01DX009 (ip), vehicle: other): 166 % of control
T/C (dose: 2.5 mg/kg/injection, schedule: Q01DX009 (ip), vehicle: other): 120 % of control
T/C (dose: 5.0 mg/kg/injection, schedule: Q01DX009 (ip), vehicle: other): 86 % of control

CCOC(=O)CC(C)P(c1ccccc1)C(C)CC(=O)OCC (stereo not given)
T/C [7]: 105 % of control
T/C (dose: 60.0 mg/kg/injection, schedule: Q01DX005 (ip), vehicle: saline with Tween-80): 98 % of control
T/C [8]: 99 % of control
T/C (dose: 120.0 mg/kg/injection, schedule: Q01DX005 (ip), vehicle: saline with Tween-80): 101 % of control
T/C [9]: 102 % of control
T/C (dose: 240.0 mg/kg/injection, schedule: Q01DX005 (ip), vehicle: saline with Tween-80): 105 % of control

From PubChem BioAssay AID330 (DTP/NCI, 2004)
